# Results published in ChEMBL document CHEMBL4831514, “Novel betulin dicarboxylic acid ester derivatives as potent antiviral agents: Design, synthesis, biological evaluation, structure-activity relationship and in-silico study” (Eur J Med Chem, 2021).
# Calls of active or inactive are those of the source. The calls are words filed in the database; no cut-off is given here.
# Columns and labels:
# Enterovirus E = assay: Antiviral activity against Enterovirus E LCR-4 infected in A549 cells assessed as inhibition of viral adsorption at early stage of replication treated for 1 hr during viral infection followed by replacement with fresh medium and measured after 72 hrs by MTT assay; type: functional, organism-based
# Human adenovirus 5 [1] = assay: Antiviral activity against Human adenovirus 5 Adenoid 75 infected in A549 cells assessed as reduction in virus titer preincubated for 24 hrs followed by viral infection and measured after 72 hrs by microscopic analysis; type: functional, organism-based
# [2] = tested on: Vesicular stomatitis virus; assay: Antiviral activity against Vesicular stomatitis virus Indiana infected in A549 cells assessed as reduction in virus titer preincubated for 24 hrs followed by viral infection and measured after 72 hrs by microscopic analysis; type: functional, organism-based
# MDCK = assay: (§1) Cytotoxicity against MDCK cells assessed as reduction in cell viability incubated for 72 hrs by MTT assay; type: cell-based, Canis lupus familiaris; settings: dog, mdck, 72 h
# [3] = as §1; type: cell-based, Canis lupus familiaris; settings: dog, MDCK cells
# Human alphaherpesvirus 1 [4] = assay: Antiviral activity against Human herpesvirus-1 MacIntyre infected in A549 cells assessed as inhibition of viral adsorption at early stage of replication treated for 1 hr during viral infection followed by replacement with fresh medium and measured after 48 hrs by MTT assay; type: functional, organism-based
# Human adenovirus 5 [5] = assay: Antiviral activity against Human adenovirus 5 Adenoid 75 infected in A549 cells assessed as inhibition of viral adsorption at early stage of replication treated for 1 hr during viral infection followed by replacement with fresh medium and measured after 72 hrs by MTT assay; type: functional, organism-based
# Human alphaherpesvirus 1 [6] = assay: Antiviral activity against Human herpesvirus 1 MacIntyre infected in A549 cells assessed as reduction in virus titer preincubated for 24 hrs followed by viral infection and measured after 72 hrs by microscopic analysis; type: functional, organism-based
# A549 = assay: (§2) Cytotoxicity against human A549 cells assessed as reduction in cell viability incubated for 48 hrs by MTT assay; type: cell-based; settings: a549, 48 h
# Human alphaherpesvirus 1 [7] = assay: (§3) Potency index, ratio of acyclovir EC50 to test compound EC50 for antiviral activity against Human herpesvirus 1 MacIntyre infected in A549 cells assessed as reduction in virus titer treated 1 hr post viral infection followed by replacement with fresh medium with compounds and measured after 48 hrs by MTT assay; type: functional
# Human alphaherpesvirus 1 [8] = assay: Antiviral activity against Human herpesvirus 1 MacIntyre infected in A549 cells assessed as reduction in virus titer treated 1 hr post viral infection followed by replacement with fresh medium with compounds and measured after 48 hrs by MTT assay; type: functional, organism-based; settings: Human alphaherpesvirus 1, MacIntyre
# [9] = as §2; type: cell-based; settings: A549 cells
# [10] = as §3, with “Selectivity” for “Potency”, “CC50 for cytotoxicity against human A549 cells” for “acyclovir EC50”, “to” for “to test compound”, “72” for “48”; type: toxicity, cell-based; settings: read-out: Selectivity Index
Structure (SMILES),Activity (Enterovirus E),Activity (Human adenovirus 5 [1]),Activity [2],CC20 (MDCK),CC50 at 72 h [3],Activity (Human alphaherpesvirus 1 [4]),Activity (Human adenovirus 5 [5]),Activity (Human alphaherpesvirus 1 [6]),CC20 (A549),Ratio EC50 (Human alphaherpesvirus 1 [7]),EC50 (Human alphaherpesvirus 1 [8]),CC50 at 48 h [9],selectivity ratio at 72 h [10]
C#CC1(NC(=O)/C(C)=C/C(=O)OC[C@]23CC[C@@H](C(=C)C)[C@@H]2[C@H]2CC[C@@H]4[C@@]5(C)CC[C@H](O)C(C)(C)[C@@H]5CC[C@@]4(C)[C@]2(C)CC3)CCCCC1,inactive,inactive,inactive,54.47 µM,54.5 µM,inactive,inactive,inactive,54.47 µM,–,–,–,–
C=C(C)[C@@H]1CC[C@]2(COC(=O)CSCC(=O)O)CC[C@]3(C)[C@H](CC[C@@H]4[C@@]5(C)CC[C@H](O)C(C)(C)[C@@H]5CC[C@]43C)[C@@H]12,inactive,inactive,inactive,21.08 µM,42.2 µM,inactive,inactive,inactive,21.08 µM,–,–,–,–
C=C(C)[C@@H]1CC[C@]2(COC(=O)CCCC(=O)N3CCCCC3)CC[C@]3(C)[C@H](CC[C@@H]4[C@@]5(C)CC[C@H](O)C(C)(C)[C@@H]5CC[C@]43C)[C@@H]12,inactive,inactive,inactive,4.25 µM,–,inactive,inactive,inactive,17.12 µM,3,–,–,–
CCOC(=O)C1=C[C@@H](OC(CC)CC)[C@H](NC(C)=O)[C@@H](N)C1 [OSELTAMIVIR],–,–,–,320.51 µM,7870 µM,–,–,–,–,–,–,–,–
C=C(C)[C@@H]1CC[C@]2(COC(=O)c3ccccc3C(=O)N3CCOCC3)CC[C@]3(C)[C@H](CC[C@@H]4[C@@]5(C)CC[C@H](O)C(C)(C)[C@@H]5CC[C@]43C)[C@@H]12,inactive,inactive,inactive,143.47 µM,–,inactive,inactive,inactive,35.87 µM,3,35.9 µM,144 µM,4
C=C(C)[C@@H]1CC[C@]2(COC(=O)/C=C(\C)C(=O)N3CCCCC3)CC[C@]3(C)[C@H](CC[C@@H]4[C@@]5(C)CC[C@H](O)C(C)(C)[C@@H]5CC[C@]43C)[C@@H]12,inactive,inactive,inactive,4.26 µM,–,inactive,inactive,inactive,34.34 µM,3,17.2 µM,68.7 µM,4
C=C(C)[C@@H]1CC[C@]2(COC(=O)CCCC(=O)O)CC[C@]3(C)[C@H](CC[C@@H]4[C@@]5(C)CC[C@H](O)C(C)(C)[C@@H]5CC[C@]43C)[C@@H]12,inactive,inactive,inactive,11.22 µM,–,inactive,inactive,inactive,22.44 µM,3,22.4 µM,80.8 µM,3.6
"C=C(C)[C@@H]1CC[C@]2(COC(=O)c3ccccc3C(=O)N3CCCCC3)CC[C@]3(C)[C@H](CC[C@H]4C3(C)CC[C@H]3C(C)(C)[C@@H](O)CC[C@@]34C)[C@@H]12 (single isomer, unassigned)",inactive,inactive,inactive,32.72 µM,–,inactive,inactive,inactive,65.45 µM,3,32.7 µM,65.4 µM,2
C=C(C)[C@@H]1CC[C@]2(COC(=O)c3ccccc3C(=O)N3CCSCC3)CC[C@]3(C)[C@H](CC[C@@H]4[C@@]5(C)CC[C@H](O)C(C)(C)[C@@H]5CC[C@]43C)[C@@H]12,inactive,inactive,inactive,7.3 µM,–,inactive,inactive,inactive,58.9 µM,3,29.6 µM,350 µM,11.8
C=C(C)[C@@H]1CC[C@]2(COC(=O)c3cccc(C(=O)O)c3)CC[C@]3(C)[C@H](CC[C@@H]4[C@@]5(C)CC[C@H](O)C(C)(C)[C@@H]5CC[C@]43C)[C@@H]12,inactive,inactive,inactive,42.3 µM,–,inactive,inactive,inactive,21.15 µM,–,–,–,–
C=C(C)[C@@H]1CC[C@]2(COC(=O)/C=C/C(=O)O)CC[C@]3(C)[C@H](CC[C@@H]4[C@@]5(C)CC[C@H](O)C(C)(C)[C@@H]5CC[C@]43C)[C@@H]12,inactive,inactive,inactive,5.73 µM,–,inactive,inactive,inactive,11.55 µM,–,–,–,–
C=C(C)[C@@H]1CC[C@]2(COC(=O)CCCC(=O)N3CCOCC3)CC[C@]3(C)[C@H](CC[C@@H]4[C@@]5(C)CC[C@H](O)C(C)(C)[C@@H]5CC[C@]43C)[C@@H]12,inactive,inactive,inactive,18.85 µM,–,inactive,inactive,inactive,18.85 µM,3,18.9 µM,151 µM,8
C=C(C)[C@@H]1CC[C@]2(COC(=O)CCC(=O)N3CCOCC3)CC[C@]3(C)[C@H](CC[C@@H]4[C@@]5(C)CC[C@H](O)C(C)(C)[C@@H]5CC[C@]43C)[C@@H]12,inactive,inactive,inactive,4.78 µM,–,inactive,inactive,inactive,9.63 µM,–,–,–,–
C=C(C)[C@@H]1CC[C@]2(COC(=O)c3ccccc3C(=O)O)CC[C@]3(C)[C@H](CC[C@@H]4[C@@]5(C)CC[C@H](O)C(C)(C)[C@@H]5CC[C@]43C)[C@@H]12,inactive,inactive,inactive,42.3 µM,–,inactive,inactive,inactive,21.15 µM,–,–,–,–
C#CC1(NC(=O)c2cccc(C(=O)OC[C@]34CC[C@@H](C(=C)C)[C@@H]3[C@H]3CC[C@@H]5[C@@]6(C)CC[C@H](O)C(C)(C)[C@@H]6CC[C@@]5(C)[C@]3(C)CC4)c2)CCCCC1,inactive,inactive,inactive,104.82 µM,–,inactive,inactive,inactive,104.82 µM,–,–,–,–
"C#CC1(NC(=O)CCCC(=O)OC[C@]23CCC(C(=C)C)[C@@H]2[C@H]2CC[C@@H]4[C@@]5(C)CC[C@H](O)C(C)(C)[C@@H]5CC[C@@]4(C)[C@]2(C)CC3)CCCCC1 (single isomer, unassigned)",inactive,inactive,inactive,108.7 µM,–,inactive,inactive,inactive,108.7 µM,–,–,–,–
C=C(C)[C@@H]1CC[C@]2(COC(=O)CCCCCCCCCC(=O)N3CCOCC3)CC[C@]3(C)[C@H](CC[C@@H]4[C@@]5(C)CC[C@H](O)C(C)(C)[C@@H]5CC[C@]43C)[C@@H]12,inactive,inactive,inactive,139.08 µM,–,inactive,inactive,inactive,34.77 µM,3,34.8 µM,164 µM,4.7
